# What was measured:
# KCHSC = experiment: Post-emergence application in greenhouse trials; type: in vivo, Kochia scoparia; settings: growth stage 33, 1% MSO
# Procedure: (§1) In the examples below, using the method of S. R. Colby (1967) “Calculating synergistic and antagonistic responses of herbicide combinations”, Weeds 15, p. 22ff., the value E, which is expected if the activity of the individual active compounds is only additive, was calculated.
# (§2) [formula] • where • X=percent activity using active herbicide A at an application rate a; • Y=percent activity using active saflufenacil at an application rate b; • E=expected activity (in %) by A+B at application rates a+b.
# (§3) If the value found experimentally is higher than the value E calculated according to Colby, a synergistic effect is present.
# (§4) The culture containers used were plastic pots containing loamy sand with approximately 3.0% of humus as substrate. The seeds of the test plants were sown separately for each species.
# (§5) For the post-emergence treatment, the test plants were grown to a plant height of from 3 to 15 cm, depending on the plant habit, and only then treated with the active compounds which had been suspended or emulsified in water. To this end, the test plants were either sown directly, and grown in the same containers, or they were first grown separately as seedlings and transplanted into the test containers a few days prior to treatment.
# (§6) Depending on the species, the plants were kept at 10-25° C. and 20-35° C., respectively.
# (§7) The test period extended over 2 to 4 weeks. During this time, the plants were tended and their response to the individual treatments was evaluated.
# (§8) Evaluation was carried out using a scale from 0 to 100. 100 means no emergence of the plants, or complete destruction of at least the above-ground parts, and 0 means no damage or normal course of growth. A good herbicidal activity is given at values of at least 70, and very good herbicidal activity is given at values of at least 85.
# (§9) Unless indicated otherwise, herbicide A and saflufenacil were formulated (50 g/I) and applied with addition of 1% MSO (methylated seed oil) as adjuvant. In the greenhouse trials, the solvent used was water (200 I/ha).
# AVEFA = experiment: Post-emergence application in field trials (Examples 2 and 3); type: in vivo, Avena fatua; settings: 1% v/v MSO
# Procedure: as §1, §2, §3
# (§10) On field test sites, natural weed infestation or seeded weeds were treated post-emergence of the weeds.
# (§11) For the post emergence treatment, the weedy plants were treated as indicated below. The herbicidal compositions were, together with the adjuvant(s) as indicated, suspended or emulsified in water (200 l/ha unless indicated otherwise) as distribution medium and sprayed with commercial flat fan nozzles.
# (§12) In the following experiments, the herbicidal activity for the individual herbicidal compositions (solo and mixture applications) was assessed the indicated days after treatment (DAT). The assessments for the damage on undesired weeds caused by the composition was carried out using a scale from 0 to 100%, compared to the untreated control plants. Here, 0 means no damage and 100 means complete destruction of the plants.
# as §11, with “I/ha” for “l/ha”
# IPOTR = experiment: as above; type: in vivo, Ipomoea triloba; settings: growth stage 40-41, height 65-75 cm, 21 DAT, 1% Dash ® HC
# Procedure: as §1, §2, §3, §10, §11
# as §12, with “Here, 0 means no damage and 100 means complete destruction of the plants.” left out
# ECHCG = experiment: Post-emergence application in greenhouse trials; type: in vivo, Echinocloa crus-galli; settings: growth stage 13, saflufenacil as commercial 342 g/l SC formulation
# Procedure: as §1, §2, §3, §4, §5, §6, §7, §8, §9
# ELEIN [1] = experiment: Post-emergence application in greenhouse trials; type: in vivo, Eleusine indica; settings: 21 DAT, growth stage 21, saflufenacil as commercial 342 g/l SC formulation
# Procedure: as §1, §2, §3, §4
# as §5, with “treatment. […]” for “treatment.”
# (§13) The test period extended over 2 to 4 weeks. During this time, the plants were tended and their response to the individual treatments was evaluated. […]
# COMBE [2] = experiment: Post-emergence application in greenhouse trials; type: in vivo, Commelina benghalensis; settings: growth stage 21, 1% MSO
# Procedure: as §1, §2, §3, §4, §5, §6, §7, §8, §9
# LAMAN = experiment: Post-emergence application in field trials (Examples 2 and 3); type: in vivo, Lamium amplexicaule; settings: height 3-18 cm, 21 DAT, 1% v/v MSO and 1% AMS (ammonium sulfate)
# Procedure: as §1, §2, §3, §10, §11
# as §12, with “Here, 0 means no damage and 100 means complete destruction of the plants.” left out
# ELEIN [3] = experiment: as above; type: in vivo, Eleusine indica
# Procedure: as §1, §2, §3, §10, §11, §12
# as §11, with “I/ha” for “l/ha”
# COMBE [4] = experiment: as above; type: in vivo, Commelina benghalensis; settings: 21 DAT, growth stage 11-14, height 2-10 cm, 0.5% MSO
# Procedure: as §1, §2, §3, §10, §11
# as §12, with “Here, 0 means no damage and 100 means complete destruction of the plants.” left out
# STEME = experiment: as above; type: in vivo, Stellaria media; settings: 21 DAT, growth stage 63-67, height 7-18 cm, 140 l/ha water, 1% MSO + 2.5% ammoniumsulfate
# Procedure: as §1, §2, §3, §10, §11
# as §12, with “Here, 0 means no damage and 100 means complete destruction of the plants.” left out
# DIGIN = experiment: as above; type: in vivo, Digitaria insularis
# Procedure: as §1, §2, §3, §10, §11, §12
# as §11, with “I/ha” for “l/ha”
# LOLRI = experiment: as above; type: in vivo, Lolium rigidum; settings: 14 DAT, 1% v/ MSO
# Procedure: as §1, §2, §3, §10, §11
# as §12, with “Here, 0 means no damage and 100 means complete destruction of the plants.” left out
# ALOMY = experiment: Post-emergence application in greenhouse trials; type: in vivo, Alopercurus myosuroides; settings: 7 DAT, growth stage 21, saflufenacil as commercial 342 g/l SC formulation
# Procedure: as §1, §2, §3, §4
# as §5, with “treatment. […]” for “treatment.”
# as §13
# EPHHL = experiment: Post-emergence application in field trials (Examples 2 and 3); type: in vivo, Euphorbia heterophylla; settings: 21 DAT, growth stage 12-16, height 5-15 cm, 0.5% MSO
# Procedure: as §1, §2, §3, §10, §11
# as §12, with “Here, 0 means no damage and 100 means complete destruction of the plants.” left out
compound,measurement,setting,value
"CCOC(=O)COc1ccccc1Oc1nc(-n2c(=O)cc(C(F)(F)F)n(C)c2=O)c(F)cc1Cl [A-1, ethyl 2-[2-[[3-chloro-5-fluoro-6-[3-methyl-2,6-dioxo-4-(trifluoromethyl)pyrimidin-1-yl]-2-pyridyl]oxy]phenoxy]acetate]",% Herbicidal activity,"KCHSC; A-1 0.2 g ai/ha, 6 DAT",15%
same,% Herbicidal activity,"KCHSC; A-1 0.2 g ai/ha, 20 DAT",15%
same,% Herbicidal activity,"KCHSC; A-1 0.3 g ai/ha, 6 DAT",55%
same,% Herbicidal activity,"KCHSC; A-1 0.4 g ai/ha, 6 DAT",55%
same,% Herbicidal activity,"KCHSC; A-1 0.4 g ai/ha, 20 DAT",55%
same,% Herbicidal activity,"KCHSC; A-1 0.9 g ai/ha, 6 DAT",90%
same,% Herbicidal activity,"KCHSC; A-1 1 g ai/ha, 6 DAT",95%
same,% Herbicidal activity,"AVEFA; A-1 18 g ai/ha, 28 DAT, growth stage 14-15, height 9-16 cm, field, 100 l/ha water",83%
same,% Herbicidal activity,"AVEFA; A-1 18 g ai/ha, 29 DAT, growth stage 14-23, height 24-40 cm, field, 100 l/ha water",80%
same,% Herbicidal activity,"AVEFA; AVEFA, growth stage 15-16, height 25-38 cm, A-1 solo 12.5 g ai/ha, 16 DAT",90%
same,% Herbicidal activity,"AVEFA; AVEFA, growth stage 15-16, height 25-38 cm, A-1 solo 25 g ai/ha, 16 DAT",95%
same,% Herbicidal activity,"AVEFA; AVEFA, growth stage 15-16, height 25-38 cm, A-1 solo 50 g ai/ha, 16 DAT",98%
same,% Herbicidal activity,IPOTR; A-1 solo 30 g ai/ha,57%
same,% Herbicidal activity,"ECHCG; A-1 1.56 g ai/ha, 7 DAT",70%
same,% Herbicidal activity,"ECHCG; A-1 1.56 g ai/ha, 21 DAT",55%
same,% Herbicidal activity,ELEIN [1]; A-1 3.12 g ai/ha,80%
same,% Herbicidal activity,"COMBE [2]; A-1 0.2 g ai/ha, 6 DAT",15%
same,% Herbicidal activity,"COMBE [2]; A-1 0.2 g ai/ha, 20 DAT",40%
same,% Herbicidal activity,"COMBE [2]; A-1 0.4 g ai/ha, 20 DAT",75%
same,% Herbicidal activity,LAMAN; A-1 solo 25 g ai/ha,93%
same,% Herbicidal activity,"ELEIN [3]; A-1 12.5 g ai/ha, 21 DAT, height 1-15 cm, 140 l/ha water, 1% MSO + 2.5% ammoniumsulfate",49%
same,% Herbicidal activity,"ELEIN [3]; A-1 12.5 g ai/ha, 21 DAT, height 7-10 cm, 1% v/v MSO and 1% w/v ammoniumsulfate",18%
same,% Herbicidal activity,"ELEIN [3]; A-1 12.5 g ai/ha, 21 DAT, height 15-20 cm, 1% v/v MSO and 1% w/v ammoniumsulfate",27%
same,% Herbicidal activity,"ELEIN [3]; A-1 25 g ai/ha, 19 DAT, growth stage 24, 0.5% MSO",68%
same,% Herbicidal activity,"ELEIN [3]; A-1 25 g ai/ha, 21 DAT, height 7-10 cm, 1% v/v MSO and 1% w/v ammoniumsulfate",78%
same,% Herbicidal activity,"ELEIN [3]; A-1 25 g ai/ha, 21 DAT, height 15-20 cm, 1% v/v MSO and 1% w/v ammoniumsulfate",55%
same,% Herbicidal activity,"ELEIN [3]; A-1 50 g ai/ha, 19 DAT, growth stage 24, 0.5% MSO",73%
same,% Herbicidal activity,COMBE [4]; A-1 50 g ai/ha,94%
same,% Herbicidal activity,STEME; A-1 12.5 g ai/ha,83%
same,% Herbicidal activity,"DIGIN; A-1 50 g ai/ha, 7 DAT, height 60-80 cm, field, 0.5% v/v MSO",70%
same,% Herbicidal activity,"DIGIN; DIGIN, growth stage 65, height 40-50 cm, A-1 solo 30 g ai/ha, 21 DAT, 1% v/v MSO",53%
same,% Herbicidal activity,"LOLRI; growth stage 12-22, A-1 solo 25 g ai/ha",85%
same,% Herbicidal activity,ALOMY; A-1 3.12 g ai/ha,70%
same,% Herbicidal activity,EPHHL; A-1 25 g ai/ha,97%
"CC(C)N(C)S(=O)(=O)NC(=O)c1cc(-n2c(=O)cc(C(F)(F)F)n(C)c2=O)c(F)cc1Cl [B-1, saflufenacil]",% Herbicidal activity,"KCHSC; B-1 0.2 g ai/ha, 6 DAT",15%
same,% Herbicidal activity,"KCHSC; B-1 0.3 g ai/ha, 6 DAT",35%
same,% Herbicidal activity,"KCHSC; B-1 0.8 g ai/ha, 6 DAT",60%
same,% Herbicidal activity,"KCHSC; B-1 0.8 g ai/ha, 20 DAT",70%
same,% Herbicidal activity,"KCHSC; B-1 0.9 g ai/ha, 6 DAT",60%
same,% Herbicidal activity,"KCHSC; B-1 1 g ai/ha, 6 DAT",80%
same,% Herbicidal activity,"KCHSC; B-1 1 g ai/ha, 20 DAT",80%
same,% Herbicidal activity,"AVEFA; AVEFA, growth stage 15-16, height 25-38 cm, B-1 solo 25 g ai/ha, 16 DAT",3%
same,% Herbicidal activity,"AVEFA; B-1 18 g ai/ha, 28 DAT, growth stage 14-15, height 9-16 cm, field, 100 l/ha water",0%
same,% Herbicidal activity,"AVEFA; B-1 18 g ai/ha, 29 DAT, growth stage 14-23, height 24-40 cm, field, 100 l/ha water",0%
same,% Herbicidal activity,IPOTR; B-1 solo 25 g ai/ha,43%
same,% Herbicidal activity,"ECHCG; B-1 3.12 g ai/ha, 7 DAT",65%
same,% Herbicidal activity,"ECHCG; B-1 3.12 g ai/ha, 21 DAT",40%
same,% Herbicidal activity,ELEIN [1]; B-1 3.12 g ai/ha,30%
same,% Herbicidal activity,"COMBE [2]; B-1 0.2 g ai/ha, 6 DAT",15%
same,% Herbicidal activity,"COMBE [2]; B-1 0.2 g ai/ha, 20 DAT",5%
same,% Herbicidal activity,"COMBE [2]; B-1 0.8 g ai/ha, 20 DAT",75%
same,% Herbicidal activity,LAMAN; B-1 solo 25 g ai/ha,40%
same,% Herbicidal activity,"ELEIN [3]; B-1 12.5 g ai/ha, 21 DAT, height 1-15 cm, 140 l/ha water, 1% MSO + 2.5% ammoniumsulfate",19%
same,% Herbicidal activity,"ELEIN [3]; B-1 25 g ai/ha, 19 DAT, growth stage 24, 0.5% MSO",0%
same,% Herbicidal activity,"ELEIN [3]; B-1 25 g ai/ha, 21 DAT, height 7-10 cm, 1% v/v MSO and 1% w/v ammoniumsulfate",0%
same,% Herbicidal activity,"ELEIN [3]; B-1 25 g ai/ha, 21 DAT, height 15-20 cm, 1% v/v MSO and 1% w/v ammoniumsulfate",0%
same,% Herbicidal activity,COMBE [4]; B-1 25 g ai/ha,5%
same,% Herbicidal activity,STEME; B-1 12.5 g ai/ha,53%
same,% Herbicidal activity,"DIGIN; B-1 25 g ai/ha, 7 DAT, height 60-80 cm, field, 0.5% v/v MSO",8%
same,% Herbicidal activity,"DIGIN; DIGIN, growth stage 65, height 40-50 cm, B-1 solo 25 g ai/ha, 21 DAT, 1% v/v MSO",5%
same,% Herbicidal activity,"LOLRI; growth stage 12-22, B-1 solo 25 g ai/ha",20%
same,% Herbicidal activity,ALOMY; B-1 3.12 g ai/ha,25%
same,% Herbicidal activity,EPHHL; B-1 25 g ai/ha,5%

# Reference: patent US20250040548A1, “Herbicidal compositions comprising saflufenacil” (BASF SF, priority 2023, published 2025)
